Data taken from PMC10721329, “Quisinostat is a brain-penetrant radiosensitizer in glioblastoma” (JCI Insight, 2023).
Values joined by “and” are separate entries in the source; they are usually repeats but may differ in a detail not shown here. Identical values can stand only once.

Legend:
[1] = tested on: BT145 cells; experiment: Intracellular uptake of QST and level in media, with or without washout (LC-MS/MS); assay type: cell-based, human
Procedure: To further understand the kinetics of drug-target engagement in GSCs, we harvested media and BT145 cells at 0, 2, 6, 10, and 24 hours with or without removal of QST (75 nM). At each time point, we measured the intracellular drug levels and concentrations in the cell media. With continuous drug exposure (no washout), the intracellular levels of QST in BT145 increased throughout the incubation period, reaching equilibrium by 10 hours (Supplemental Figure 2A). […] By contrast, in washout experiments (performed 2 hours after spiking cell media with the drug), minimal QST levels were measured intracellularly after drug removal at all time points (Supplemental Figure 2B).
QST concentrations in specimens were measured using reverse-phase LC on the AB SCIEX QTRAP6500+ LC-MS/MS system by operating electrospray in the positive ion mode. For liquid chromatographic separation, gradient elution was performed using a Phenomenex Kinetex F5 100 Å column (100 × 2.1 mm, 2.6 μm). The initial composition of the mobile phase was 70% phase A (0.1% formic acid in water) and 30% phase B (0.1% formic acid in 1:1 acetonitrile/methanol) with a 0.35 mL/min flow rate. Gradient elution was achieved as follows: mobile phase (B) was maintained at 30% from 0 to 0.3 minutes, increased to 95% from 0.3 to 0.8 minutes, maintained at 95% from 0.8 to 2.5 minutes, and decreased to 30% from 2.5 to 2.8 minutes. The total run time was 3.5 minutes. The internal standard used in this study was D8-infigratinib. The retention times for QST and D8-infigratinib were 1.6 and 1.8 minutes, respectively. Mass-to-charge ratio transitions were as follows: 395.20 → 144.00 (QST) and 568.08 → 321.00 (D8-infigratinib). LC-MS/MS analysis was performed using an Analyst 1.7 Chromatographic Data System. See Supplemental Methods for detailed PK experiments. […]
Cell Media and Lysate Sample Preparation
Cell media and lysates were thawed at room temperature. An aliquot of 20 µL of cell media or lysate was transferred into a micro centrifuge tube followed by protein precipitation with 60 µL of IS-containing methanol precipitation solution. The mixture was vortex-mixed for 10 s and centrifuged at 12000 g at 4 °C for 10 min. A 50-µL aliquot of the supernatant was transferred to an autosampler vial, and 5 µL was injected into the LC-MS/MS system for […]

[2] = tested on: orthotopic GB126 tumors; experiment: Survival study, orthotopic GB126 PDX, QST with or without IR; assay type: in vivo, athymic nude mice; details: for Survival, Days Post Injection (death): GB126 PDX, individual mice; for increase of median survival versus vehicle: orthotopic GB126 PDX
Procedure: We additionally questioned whether QST, either alone or in combination with IR, could extend the survival of tumor-bearing mice. In this study, mice received the same treatments described above, but after completion of the 1-week IR regimen, mice continued to receive QST at 10 mg/kg or vehicle solution on MWF until study completion, as determined by large tumor burden and onset of neurological symptoms (Figure 8A). […] Although QST monotherapy slowed tumor growth, median survival for the QST-treated mice was only 4 days longer than for the vehicle-treated mice (P < 0.01), and IR alone increased median survival by 17 days (P < 0.001; Figure 8D). However, combining QST with IR led to a significant increase in median survival (37 days, P < 0.001) compared with the vehicle (Figure 8D).
Seven-week-old Foxn1^nu nude male mice (The Jackson Laboratory) were used for in vivo orthotopic transplantation of luciferized GB126 ([…]) cells (at a density of 50,000 cells/μL). All procedures were performed as described elsewhere ([11]). All mice were observed daily and were sacrificed upon the onset of severe neurological symptoms and more than 10% body weight loss. Survival data were plotted and analyzed using GraphPad Prism 8. See Supplemental Methods for detailed in vivo methods. […]
treated with 2 Gy of ionizing radiation on MWF for a total 6 Gy (3 doses). Ionizing radiation was administered with the RS2000 series biological research irradiator (Rad Source Technologies). […]
Treatment of Mice with Intracranially Implanted QST and/or Radiation
Mice with implanted tumors were allowed to grow until the tumor bioluminescence score reached […] radiance (p/s/[…]/sr). Mice were randomized into groups before treatment. For survival studies, mice underwent treatment on MWF for the entire duration of the experiment until moribund. For mice receiving IR treatment with or without QST, mice were treated with 2 […]
Gy on MWF for a total of 6 Gy in the first week of treatment. Treatment groups included vehicle (50% PEG-3000), QST (10 mg/kg) alone, 6 Gy whole-brain IR treatment with vehicle, and 6 Gy whole-brain IR treatment with 10 mg/kg QST. QST was administered to mice through intraperitoneal injections two hours prior to whole-brain radiation treatment. Upon completion of the radiation regimen, IR-treated mice subsequently received QST or vehicle alone for the rest of the experiment. Tumor growth and treatment response was monitored by IVIS bioluminescence once per week. For survival studies, mice were sacrificed, and samples were collected for PD and PK analyses once moribund 2 hours after treatment with a final dose of QST (10 mg/kg).
For short-term PK-PD correlation studies, tumor-bearing mice were randomized into groups and underwent a single week of treatment with QST (10 mg/kg) on MWF. […]

Cn1cc(CNCC2CCN(c3ncc(C(=O)NO)cn3)CC2)c2ccccc21 [QST, quisinostat]
time to equilibrium of intracellular QST level ([1]; BT145, 75 nM QST, continuous exposure): ≤ 10 h
Average Cell uptake ([1]; no washout, 2 hrs): 7.31 nmol/g protein
Media ([1]; no washout, 2 hrs): 62.85 nM
Media at cell collection ([1]; no washout, 2 hrs): 52.25 nM
Average Cell uptake ([1]; no washout, 6 hrs): 10.61 nmol/g protein
Media ([1]; no washout, 6 hrs): 67.45 nM
Media at cell collection ([1]; no washout, 6 hrs): 45.30 nM
Average Cell uptake ([1]; no washout, 10 hrs): 11.62 nmol/g protein
Media ([1]; no washout, 10 hrs): 65.15 nM
Media at cell collection ([1]; no washout, 10 hrs): 39.70 nM
Average Cell uptake ([1]; no washout, 24 hrs): 11.78 nmol/g protein
Media ([1]; no washout, 24 hrs): 64.10 nM
Media at cell collection ([1]; no washout, 24 hrs): 30.75 nM
Average Cell uptake ([1]; with washout, 0 hrs): 7.31 nmol/g protein
Media ([1]; with washout, 0 hrs): 62.85 nM
Media at cell collection ([1]; with washout, 0 hrs): 52.25 nM
Average Cell uptake ([1]; with washout, 2 hrs): 2.58 nmol/g protein
Media ([1]; with washout, 2 hrs): 64.35 nM
Media at cell collection ([1]; with washout, 2 hrs): 3.665 nM
Average Cell uptake ([1]; with washout, 6 hrs): 3.23 nmol/g protein
Media ([1]; with washout, 6 hrs): 63.40 nM
Media at cell collection ([1]; with washout, 6 hrs): 5.31 nM
Average Cell uptake ([1]; with washout, 10 hrs): 2.72 nmol/g protein
Media ([1]; with washout, 10 hrs): 66.40 nM
Media at cell collection ([1]; with washout, 10 hrs): 5.605 nM
Average Cell uptake ([1]; with washout, 24 hrs): 3.95 nmol/g protein
Media ([1]; with washout, 24 hrs): 58.55 nM
Media at cell collection ([1]; with washout, 24 hrs): 3.57 nM
Survival, Days Post Injection (death) ([2]; QST 10 mg/kg + IR 6 Gy): 79 days and 85 days and 83 days and 86 days and 75 days and 84 days and 82 days
Survival, Days Post Injection (death) ([2]; QST 10 mg/kg alone): 65 days and 50 days and 49 days and 48 days and 46 days and 57 days and 54 days and 66 days
increase of median survival versus vehicle ([2]; QST 10 mg/kg MWF + IR 6 Gy): 37 days
increase of median survival versus vehicle ([2]; QST 10 mg/kg MWF monotherapy): 4 days
